In article PMC9570017, “Unorthodox PCNA Binding by Chromatin Assembly Factor 1” (International Journal of Molecular Sciences, 2022):
Where two headings read alike, the source gives them in different places.

Columns and labels:
PCNA [1] = experiment: NMR 1H-15N BEST HSQC of 15N-p150L with PCNA; type: binding, human; conditions: 50 μM p150L, 400 μM PCNA monomer, 10 mM sodium phosphate pH 7.2, 10 mM NaCl, 293K
Method: NMR experiments were carried out on a 600 MHz Bruker Avance III spectrometer equipped with a 5 mm QCIP cryoprobe with Z gradients. All experiments were carried out at 293K. Two-dimensional ^1H-^15N BEST HSQC [60] experiments were carried out using the sequences downloaded from the NMRlib suite of pulse sequences. Selective shaped pulses were used to excite a ^1H sweep width of 4.5 ppm, centered at 8.75 ppm, with a recycle delay of 0.2 s. ^1H and ^15N sweep widths were set to 8417.509 Hz (14 ppm) and 1920.466 Hz (31.6 ppm) respectively, typically 240 t1 increments were acquired. NMR samples were prepared in 10 mM sodium phosphate buffer, pH 7.2, 10 mM NaCl, and 90% H2O/10% D2O. Uniformly ^15N labelled CAF-1 p150L and unlabeled PCNA were prepared in identical buffers and added together from stock samples. Final sample concentrations were at 50 μM for CAF-1 p150L and 400 μM PCNA monomer. NMR spectra were processed with NMRpipe, a multidimensional spectral system based on UNIX pipes.

PCNA [2] = experiment: Intrinsic tryptophan fluorescence quenching of PCNA by p150L; type: binding, human; conditions: 5 µM PCNA monomer + 20 µM p150L, excitation 280 nm, 10 mM sodium phosphate pH 7.2, 10 mM NaCl, 0.1 mM TCEP, room temperature
Method: Fluorescence experiments were performed on an Agilent Cary Eclipse fluorimeter at room temperature. Buffer conditions were identical for all protein components (10 mM sodium phosphate, pH 7.2, 10 mM NaCl, 0.1 mM TCEP). Samples were excited at A280nm with a 5 nm bandwidth and the emission spectra between 295 nm and 420 nm were collected. Measurements were made for 5 μM PCNA monomer (1 tryptophan residue), 20 μM CAF-1 p150L (no tryptophan and tyrosine residues), and a mixture containing 5 μM PCNA monomer and 20 μM CAF-1 p150L. Both samples were extensively dialyzed against the same buffer and prepared from stock samples to ensure identical conditions.

DNA = experiment: Co-purification with nucleic acid (DNA binding); conditions: purification of p150L; high salt washes combined with benzonase required to remove nucleic acid
Excerpt: An unusually long α-helix (119 amino acids) is predicted to end abruptly in the PIP RFF residues. The CAF-1 p150 PIP is surrounded by a red rectangle. To address this surprising prediction, CAF-1 p150 fragments that contained the predicted long α-helix including the PIP were expressed in E. coli, purified, and their biochemical and biophysical properties were characterized. This fragment of human p150 (Figure 5, residues 342–474) was expressed as a His-tagged fusion protein, hereafter referred to as CAF-1 p150L. […] Further treatment with benzonase and three sequential 1 M NaCl washes were required to remove the contamination.
S2. Expression and purification of p150L in Escherichia coli
A DNA fragment encoding human p150 residues 342-475 was cloned into the pET28a vector (kanamycin resistant) in-frame with a C-terminal 6X-histidine tag. For p150L ex-pression, this plasmid was transformed into Escherichia coli BL21(DE3) RIL cells (Strata-gene). Single colonies were inoculated and grown overnight to saturation at 37°C in 2X YT medium containing 50 µg/ml kanamycin. The next day, cells were diluted and grown to mid-exponential phase (A600nm = 0.6 - 0.8) at 37°C and protein expression was induced at 20°C with 0.5 mM isopropyl-β-D-thiogalactopyranoside (IPTG) for 16 h. […]

PCNA [3] = conditions: in vitro; ref [18]; cited from earlier work
Excerpt: CAF-1 is composed of three subunits, conserved from yeast to human. In humans, mice, and Xenopus, the three subunits of CAF-1 are p150 (CHAF1A), p60 (CHAF1B), and RbAp48 (RBBP4). p150 contains two regions that bind PCNA. The first is a motif located within the N-terminal domain of p150 that we previously referred to as the PCNA binding domain (PBD) (Figure 1A). […] I ... || Similarly, the CAF-1 PIP box sequence of Msh3, which is a part of the DNA mismatch repair machinery, is 19-[…]-41 and in accordance with the canonical sequence, the first PIP box residue corresponds to a glutamine, whereas in contrast, in the PIP box of CAF-1 this is replaced by a lysine at this position, thus making the binding mode of CAF-1 p150 non-canonical and unique in the case of human CAF-1 sequence 442-[…]-449 and mouse CAF-1 sequence 421-[…]-428. Previous research from our lab has also shown that substitution of the CAF-1 p150 lysine by a glutamine to ...

[4] = tested on: replication-coupled chromatin assembly; conditions: ref [18], cited from earlier work
Excerpt: CAF-1 is composed of three subunits, conserved from yeast to human. In humans, mice, and Xenopus, the three subunits of CAF-1 are p150 (CHAF1A), p60 (CHAF1B), and RbAp48 (RBBP4). p150 contains two regions that bind PCNA. The first is a motif located within the N-terminal domain of p150 that we previously referred to as the PCNA binding domain (PBD) (Figure 1A). […] In order to probe this further, we determined the preliminary model of the structure of CAF-1 p150 PIP bound to PCNA based on a molecular replacement solution that could not be refined further. We report here that the CAF-1 PIP binds to PCNA in an unprecedented manner.

| Substance | NMR signal changes on mixing with PCNA (PCNA [1]) | NMR signal changes on mixing with PCNA (PCNA [1]; listed as p150L) | quenching of PCNA tryptophan fluorescence / binding (PCNA [2]) | quenching of PCNA tryptophan fluorescence / binding (PCNA [2]; listed as p150L) | DNA / nucleic acid binding (DNA) | binding to PCNA (PCNA [3]) | role or effect in chromatin assembly ([4]; listed as CAF-1 PIP) | role or effect in chromatin assembly [4] |
| --- | --- | --- | --- | --- | --- | --- | --- | --- |
| CAF-1 p150L: fragment of human p150 (residues 342–474) expressed as a His-tagged fusion protein | some of the well-resolved peaks corresponding to CAF-1 p150L disappeared or were significantly shifted | most of the p150L spectrum disappears | quenched a small portion of the tryptophan signal derived from PCNA | weak binding | co-purified with nucleic acid contamination | – | – | – |
| KAEITRFF [PIP of p150] | – | – | – | – | – | shows weaker affinity for PCNA | preferentially inhibit nucleosome assembly over DNA synthesis | essential for chromatin assembly |
